The subject of this assay is H5 serum type avian influenza virus. Further details: species or system yellow chicken. Particulars: in vivo.

In the case of `CC(N)C12CC3CC(CC(C3)C1)C2` (stereo not drawn) [Group C, Rimantadine], the Effective rate is reported as 42.5%, the Number of death is 23 and the Rate of death came out at 57.5%.

These data come from patent publication US8795742B2 (priority 2006, dated 2014).
